Results published in patent publication US20240217946A1, “ANTIDEPRESSANT AND ANXIOLYTIC SUBSTITUTED CINNAMAMIDE COMPOUND” (TASLY PHARMACEUTICAL GROUP CO., LTD., priority 2021, published 2024).

How the values were obtained:
[1] = test system: 5-HT reuptake in rat brain synaptosomes; experiment: 3H-5-HT reuptake by rat brain synaptosomes; type: biochemical; conditions: 3H-5HT 10 nM, read-out: 5-HT inhibition rate % IC50
Excerpt: (§1) At present, it is believed that absolute or relative deficiencies of the central monoamine neurotransmitters 5-hydroxytryptamine (5-HT), norepinephrine (NA) and dopamine (DA) are closely related to depression and anxiety.
(§2) Synaptosomes were separated using methods in literature to prepare brain synaptosomes. SD rats were rapidly decapitated with a small animal decapitator. After decapitation, brains were taken out quickly and precooled in an ice-water mixture, and the pia mater and vascular tissue were removed. Brain tissue was taken out. 10 times volume (ml/g) of 10 mM Tris HCl buffer (containing 0.32 M sucrose, pH 7.4) was added, an ultrasonic cell pulverizer was used for homogenization (maintaining at a low temperature), and the brain tissue was homogenized and centrifuged for 10 min (4° C., 1,000 g). After balanced centrifugation (1500 g, 10 min) at 4° C., precipitate was discarded, then supernatant was taken, and centrifugation (20000 g) was performed again for 30 min. The supernatant was discarded and the precipitate, i.e. crude extract of synaptic corpuscles, was retained. […]
(§3) The percentage inhibition of isotope ligand binding by each compound was calculated according to the following equation: […]

[2] = test system: NA reuptake in rat brain synaptosomes; experiment: 3H-NA reuptake by rat brain synaptosomes; type: biochemical; conditions: 3H-NA 10 nM, rat brain synaptosomes; read-out: NA inhibition rate % IC50
Excerpt: as §1
as §2, with “retained. The precipitate was further suspended in 0.32 M cold sucrose solution and then carefully laid on 1.2 M and 0.8 M (10 ml each) cold sucrose gradient solutions which had been laid sequentially on the bottom of the tube, followed by balanced centrifugation (38000 g) at 4 °C for 60 min. A suspension band at the 0.8-1.2 M sucrose interface was carefully collected with a puncture needle, which was placed in 10 ml of 0.32 M cold sucrose solution and mixed well, and equilibrium centrifuged (20000 g) at 4 °C for 30 min. The precipitate was refined brain synaptosomes.” for “retained.”
as §3

ICR mice = experiment: Elevated plus maze experiment in mice, single administration; type: in vivo; conditions: for OE % / OT %: 30 min after single administration; for anxiolytic activity in elevated plus maze vs solvent control group: comparative study, single intragastric administration of 20 mg/kg
Procedure: 50 male ICR mice were randomly divided into 5 groups (a solvent control group, estazolam group, M2 high dosage group, M2 medium dosage group, M2 low dosage group), with 10 mice in each group. The compound M2 high, medium and low dosage groups were intragastrically administered at 20 mg/kg. 10 mg/kg and 5 mg/kg, respectively; the positive drug estazolam was intragastrically administered at 2.5 mg/kg; and the solvent control group was gavaged with an equal volume of solvent. Behavior test was performed in each group 30 min after single administration. The experiments were required to be conducted between 8:00 am and […], and all animals entered the test laboratory on the previous day.
The laboratory was dimly lit (with the lowest brightness that can distinguish the subtle activities of mice at a distance of 1.5 m) and the brightness was kept constant, with a room temperature of about 20° C., and kept quiet. Before the maze test, each mouse was placed in a 35 cm*10 cm*5 cm plastic box and left to explore freely for 5 min and then quickly placed at the central platform of an elevated plus maze, with its head facing one of the open arms, and the following indexes were recorded upon release. Each mouse was tested for 5 min. Observers observed and recorded animal activities at a distance of 1.5 m. At intervals, the maze was wiped with a wet cloth to remove feces, and then wiped with a dry cloth before a next mouse was tested.
• (1) The number of open arm entries (OE): the number of entries into any open arm, based on the fact that all four claws of the mouse entered the arm, and a complete exit of one claw from the arm indicated the completion of the entry activity; • (2) open arm time (OT): the time of entering an open arm, with the unit of seconds; • (3) the number of close arm entries (CE): the number of entries into any close arm, based on the fact that all four claws of the mouse entered the arm; • (4) close arm time (CT): the time of entering a close arm, with the unit of seconds; • (5) percentage of open arm time: OT %=OT/(OT+CT)*100%; and • (6) percentage of open arm entries: OE %=OE/(OE+CE)*100%.
70 male ICR mice were randomly divided into 7 groups (a solvent control group, estazolam group, compound M2 group, compound II-3 group, compound II-4 group, compound II-5 group, and compound II-10 group), with 10 mice in each group. The dosage of M2 and its four structurally similar compounds was determined as 20 mg/kg according to the experimental results of 3.1: the positive drug estazolam was administered intragastrically at 2.5 mg/kg; and the solvent control group was gavaged with an equal volume of solvent. Behavior test was performed in each group 30 min after single administration. The experiments were required to be conducted between 8:00 am and […], and all animals entered the test laboratory on the previous day.
The behavioral test method and behavioral observation indexes were the same as those in 3.1.
Data was expressed as mean±standard (mean±SD) difference, and statistics of data differences were made by one-way analysis of variance (ANOVA) or nonparametric test, and differences between groups were determined by P<0.05.

[3] = comparative study (Table 13), 20 mg/kg i.g.
[4] = dosage exploration study (Table 12), 5 mg/kg i.g.
[5] = dosage exploration study (Table 12), 10 mg/kg i.g.
[6] = dosage exploration study (Table 12), 20 mg/kg i.g.

Row | Compound | IC50 [1] | IC50 [2] | OE % (ICR mice; [3]) | OT % (ICR mice; [3]) | anxiolytic activity in elevated plus maze vs solvent control group (ICR mice) | OE % (ICR mice; [4]) | OT % (ICR mice; [4]) | OE % (ICR mice; [5]) | OT % (ICR mice; [5]) | OE % (ICR mice; [6]) | OT % (ICR mice; [6]) | effective dosage for single administration (anxiolytic) (ICR mice; mice, elevated plus maze)
1 | CC(C)CNC(=O)/C=C/c1cc2c(c(C(F)(F)F)c1)OCO2 [Compound I-5] | 0.0185 ± 0.00247 µM | 0.0172 ± 0.00159 µM | 47.01 ± 6.30 % | 46.70 ± 9.98 % | significant anxiolytic activity | – | – | – | – | – | – | –
2 | NC(=O)/C=C/c1cc2c(c(C(F)(F)F)c1)OCO2 [Compound M2] | 0.0989 ± 0.00242 µM | 0.0235 ± 0.00356 µM | 57.94 ± 11.72 % | 57.36 ± 8.77 % | significant anxiolytic activity | 35.46 ± 10.13% | 38.52 ± 12.19% | 36.13 ± 14.12% | 35.92 ± 13.11% | 38.47 ± 7.13 % | 44.60 ± 9.33 % | 20 mg/kg
